Here are results for two molecules from patent US12290509B2, “Treatment of hepatitis delta virus infection” (priority 2014, dated 2025).

Values joined by “and” are separate entries in the source; they are usually repeats but may differ in a detail not shown here. Identical values can stand only once. Like-named read-outs stand apart in the source and are kept apart here.

The conditions of data set [1]: 200 mg BID lonafarnib; Hanrahan et al. 2009, List et al. 2002; cited from earlier work.
Data set [2] relates to hepatitis delta virus (HDV). The format is in vivo, human.
Data set [3] is described as follows: Adverse events / tolerability in HDV patients. As to conditions: N=3.
Data set [4] is described as follows: Lonafarnib serum/plasma concentration in HDV patients (LC-MS/MS). The format is in vivo, human. As to conditions: N=3. From the text:
As used herein, a serum lonafarnib level or concentration can be measured from a serum sample obtained from a subject periodically (such as weekly, biweekly, monthly or according to other schedules) and the levels during intervening periods can be extrapolated. […] In some embodiments the first measurement is made no earlier than one week after the initiation of oral therapy. Serum levels of lonafarnib can be measured using art-known methods, including radioimmunoassays, chromatographic assays, mass spectrometry and the like. In some embodiments of the invention, patient serum samples were extracted using a protein precipitation method (Acetonitrile).

For data set [5] the following is noted: cited from earlier work.
Data set [6] is described as follows: Serum ALT values in HDV patients. The data set is classed as in vivo, human.
For data set [7] the following is noted: formulated in crystalline forms; cited from earlier work.
The subject of another data set is hepatitis B virus (HBV). The experiment in a line: HBV DNA viral load and HBsAg in patients infected with HBV and HDV. As to conditions: 200 mg BID lonafarnib 12 weeks; baseline about 4 log IU/ml; below LOQ of 2 log IU/mL.
The conditions of data set [8]: Norvir package insert, cited from earlier work.

From the text for hepatitis B virus (HBV): The term “HBV viral load” of a human serum or plasma sample refers to the number of copies of human HBV DNA in a given amount of human serum or plasma sample. HBV DNA may be detected and quantitated using real-time PCR. Commercial assays for quantitating HBV DNA are available. In the United States, Abbott offers the RealTime HBV assay, which is an in vitro PCR assay for the quantitation of HBV DNA in human serum or plasma. A CE certified kit for real-time PCR-based detection of HBV is commercially available from Analytik Jena, Germany (RoboGene® HBV DNA Quantification Kit 2.0).

With `NC(=O)N1CCC(CC(=O)N2CCC([C@H]3c4ncc(Br)cc4CCc4cc(Cl)cc(Br)c43)CC2)CC1` [lonafarnib], the “tolerability in cancer patients” value in [1] is reported as “well tolerated”. In addition, the “Δ log Baseline to Day 28” value in [2] (200 mg BID lonafarnib, individual patients 4-6) was −1.85 log and −1.06 log and −1.98 log; in data set [2] (300 mg BID lonafarnib, individual patients 1-3), −1.95 log and −1.97 log and −2.07 log. Also, the “Anorexia, Grade 2” value in data set [3] (LNF 200 mg BID) and in [3] (LNF 300 mg BID) was “✓” in each case. Besides, the “Diarrhea, Grade 2” value in data set [3] (LNF 200 mg BID) and in [3] (LNF 300 mg BID) was “✓” each time. Further, the “Fatique, Grade 2” value in [3] (LNF 200 mg BID) and in data set [3] (LNF 300 mg BID) was “✓” throughout. Besides, the “Nausea, Grade 2” value in data set [3] (LNF 200 mg BID) and in data set [3] (LNF 300 mg BID) was “✓” in each case. The “Wt Loss, Grade 2” value in [3] (LNF 200 mg BID) and in data set [3] (LNF 300 mg BID) was “✓” each time. Moreover, the “Mean Serum Concentrations (lonafarnib)” value in data set [4] (Day 7, LNF 200 mg BID) was found to be 2555 ng/mL; in data set [4] (Day 7, LNF 300 mg BID) it was 2994 ng/mL; in data set [4] (Day 14, LNF 200 mg BID) it was 2959 ng/mL; in data set [4] (Day 14, LNF 300 mg BID) it was 1548 ng/mL; in [4] (Day 28, LNF 200 mg BID), 2771 ng/mL; in data set [4] (Day 28, LNF 300 mg BID) it was 1984 ng/mL. In addition, the “Mean Serum Concentrations (lonafarnib)” value turned out to be 1656 ng/mL in [4] (Day 56, LNF 200 mg BID); 2032 ng/mL in data set [4] (Day 56, LNF 300 mg BID); 443 ng/mL in data set [4] (Day 84, LNF 200 mg BID); 977 ng/mL in data set [4] (Day 84, LNF 300 mg BID). Besides, the stability in solution result in data set [5] (by pH) is recorded as “stable at neutral pH but will hydrolyze in acidic or basic conditions”. In addition, the water solubility result in [5] is “poorly water soluble”. Moreover, the hygroscopicity entry in data set [5] (crystalline solid) is listed as “non-hygroscopic”. Also, in [5] (solid state), the thermal stability result is given as “thermally stable”. In data set [6] (200 mg BID lonafarnib), the “ALT following ALT flare, patient A-001-5” value is on record as “ALT normalization”. Also, in [6] (300 mg BID lonafarnib), the “ALT following ALT flare, patient A-001-1” value is listed as “ALT normalization”. For the same molecule, the bioavailability in animals entry in [7] was “low and variable bioavailability”. Besides, in the data set with hepatitis B virus (HBV), the “HBV VL (HBV DNA level) after suppression, patient A-001-5” value was “approximately 1.5 log IU/ml”.
As for `CC(C)c1nc(CN(C)C(=O)N[C@H](C(=O)N[C@@H](Cc2ccccc2)C[C@H](O)[C@H](Cc2ccccc2)NC(=O)OCc2cncs2)C(C)C)cs1` [ritonavir], the “increase in AUC of the co-administered primary drug” value in [8] (Fluticasone propionate, aqueous nasal spray) is 350 fold; in data set [8] (sidenafil), 11 fold; in data set [8] (trimethoprim), 1.2 fold.
